# Reference: patent publication US8575201B2 (Boehringer Ingelheim International GmbH, priority 2010, dated 2013)
# Key:
# [1] = test system: synthesis of LTB4 in human whole blood; assay: Human whole blood LTB4 production inhibition assay; format: cell-based; settings: calcimycin stimulated, read-out: hWB LTB4 IC50
# Outline: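 LTB4 in plasma was quantified by HTRF immunoassay. Before that, compound-treated heparinized whole blood (15 min, 37 °C) received 20 μM final calcimycin for a further 30 min at 37 °C, followed by centrifugation at 1500×g.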
# [2] = biological target: recombinant human FLAP protein (Homo sapiens (Human), UniProt P20292); assay: FLAP binding assay (Scintillation Proximity Assay, displacement of [125I]L-691,831); settings: read-out: FLAP SPA IC50
# Sequence of recombinant human FLAP protein (P20292 whole entry): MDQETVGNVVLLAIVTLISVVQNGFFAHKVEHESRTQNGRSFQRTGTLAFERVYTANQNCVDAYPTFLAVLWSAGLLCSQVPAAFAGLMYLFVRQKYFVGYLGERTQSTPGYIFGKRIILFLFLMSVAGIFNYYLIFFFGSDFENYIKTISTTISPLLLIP
# Outline: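 Scintillation proximity displacement of an iodinated (125I) FLAP inhibitor by test compounds, using 100,000×g membrane fraction from lysed cells. Final beads 200 μg/well and protein 5 μg/well; plates shaken 2 h before reading.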
IC50 [1],IC50 [2],SMILES
99 nM,33 nM,"CNc1cnc(-c2ccc(C3(c4noc(-c5cnn(C)c5)n4)CCC3)cn2)cn1 [Example 168, Methyl-[5-(5-{1-[5-(1-methyl-1H-pyrazol-4-yl)-[1,2,4]oxadiazol-3-yl]-cyclobutyl}-pyridin-2-yl)-pyrazin-2-yl]-amine]"
840 nM,31 nM,"Nc1ncc(-c2ccc(C3(c4noc(-c5cnccc5N)n4)CCC3)cn2)cn1 [Example 106, 5-(5-{1-[5-(4-aminopyridin-3-yl)-1,2,4-oxadiazol-3-yl]cyclobutyl}pyridin-2-yl)pyrimidin-2-amine]"
370 nM,46 nM,"Nc1ncc(-c2ccc(C3(c4noc(-c5cn[nH]c5)n4)CCC3)nc2)cn1 [Example 132, 5-(6-{1-[5-(1H-pyrazol-4-yl)-1,2,4-oxadiazol-3-yl]cyclobutyl}pyridin-3-yl)pyrimidin-2-amine]"
110 nM,15 nM,"Nc1ncc(-c2ccc(C3(c4noc(-c5cnn(CCN6CCOCC6)c5)n4)CCC3)cn2)cn1 [Example 140, 5-{5-[1-(5-{1-[2-(morpholin-4-yl)ethyl]-1H-pyrazol-4-yl}-1,2,4-oxadiazol-3-yl)cyclobutyl]pyridin-2-yl}pyrimidin-2-amine]"
490 nM,130 nM,"CCN(C)C(=O)Cn1cc(-c2nc(C3(c4ccc(-c5cnc(N)nc5)nc4)CCC3)no2)cn1 [Example 162, 2-[4-(3-{1-[6-(2-amino-pyrimidin-5-yl)-pyridin-3-yl]-cyclobutyl}-[1,2,4]oxadiazol-5-yl)-pyrazol-1-yl]-N-ethyl-N-methyl-acetamide]"
1000 nM,14 nM,"Cc1n[nH]c(C)c1-c1nc(C2(c3ccc(-c4cnc(N)nc4)nc3)CCC2)no1 [Example 103, 5-(5-{1-[5-(3,5-dimethyl-1H-pyrazol-4-yl)-1,2,4-oxadiazol-3-yl]cyclobutyl}pyridin-2-yl)pyrimidin-2-amine]"
300 nM,110 nM,"CN(C)C(=O)Cn1cc(-c2nc(C3(c4ccc(-c5ccc(N)nc5)nc4)CCC3)no2)cn1 [Example 163, 2-(4-{3-[1-(6′-amino-[2,3′]bipyridinyl-5-yl)-cyclobutyl]-[1,2,4]oxadiazol-5-yl}-pyrazol-1-yl)-N,N-dimethyl-acetamide]"
370 nM,68 nM,"CC(C)(N)Cn1cc(-c2nc(C3(c4ccc(-c5cnc(N)nc5)nc4)CCC3)no2)cn1 [Example 150, 5-[5-(1-{5-[1-(2-amino-2-methyl-propyl)-1H-pyrazol-4-yl]-[1,2,4]oxadiazol-3-yl}-cyclobutyl)-pyridin-2-yl]-pyrimidin-2-ylamine]"
230 nM,62 nM,"CS(=O)(=O)c1ccc(-c2nc(C3(c4ccc(-c5cnc(N)nc5)nc4)CCC3)no2)cn1 [Example 119, 5-[5-(1-{5-[6-(methylsulfonyl)pyridin-3-yl]-1,2,4-oxadiazol-3-yl}-cyclobutyl)pyridin-2-yl]pyrimidin-2-amine]"
73 nM,23 nM,"CNc1cnc(-c2ccc(C3(c4noc(-c5cnn(C6COC6)c5)n4)CCC3)cn2)cn1 [Example 176, Methyl-[5-(5-{1-[5-(1-oxetan-3-yl-1H-pyrazol-4-yl)-[1,2,4]oxadiazol-3-yl]-cyclobutyl}-pyridin-2-yl)-pyrazin-2-yl]-amine]"
1800 nM,28 nM,"Cc1cc(-c2nc(C3(c4ccc(-c5cnc(N)nc5)nc4)CCC3)no2)n(C)n1 [Example 121, 5-(5-{1-[5-(1,3-dimethyl-1H-pyrazol-5-yl)-1,2,4-oxadiazol-3-yl]cyclobutyl}pyridin-2-yl)pyrimidin-2-amine]"
1500 nM,14 nM,"Nc1ncc(-c2ccc(C3(c4noc(-c5cccnc5C(F)(F)F)n4)CCC3)cn2)cn1 [Example 109, 5-[5-(1-{5-[2-(trifluoromethyl)pyridin-3-yl]-1,2,4-oxadiazol-3-yl}cyclobutyl)pyridin-2-yl]pyrimidin-2-amine]"
1000 nM,55 nM,"Nc1ncc(-c2ccc(C3(c4noc(-c5ccncc5)n4)CCC3)cn2)cn1 [Example 87, 5-(5-{1-[5-(pyridin-4-yl)-1,2,4-oxadiazol-3-yl]cyclobutyl}pyridin-2-yl)pyrimidin-2-amine]"
3800 nM,28 nM,"CNc1ncccc1-c1nc(C2(c3ccc(-c4cnc(N)nc4)nc3)CCC2)no1 [Example 122, 5-[5-(1-{5-[2-(methylamino)pyridin-3-yl]-1,2,4-oxadiazol-3-yl}cyclobutyl)pyridin-2-yl]pyrimidin-2-amine]"
570 nM,3.3 nM,"Nc1ncc(-c2ccc(C3(c4noc(-c5ccc(N6CCCC6)nc5)n4)CCC3)cn2)cn1 [Example 112, 5-[5-(1-{5-[6-(pyrrolidin-1-yl)pyridin-3-yl]-1,2,4-oxadiazol-3-yl}cyclobutyl)pyridin-2-yl]pyrimidin-2-amine]"
1100 nM,7.3 nM,"COc1ccc(-c2nc(C3(c4ccc(-c5cnc(N)nc5)nc4)CCC3)no2)c(OC)n1 [Example 96, 5-(5-{1-[5-(2,6-dimethoxypyridin-3-yl)-1,2,4-oxadiazol-3-yl]cyclobutyl}pyridin-2-yl)pyrimidin-2-amine]"
330 nM,24 nM,"Nc1ncc(-c2ccc(C3(c4noc(-c5ccnc(O)c5)n4)CCC3)cn2)cn1 [Example 91, 4-(3-{1-[6-(2-aminopyrimidin-5-yl)pyridin-3-yl]cyclobutyl}-1,2,4-oxadiazol-5-yl)pyridin-2-ol]"

# Continued, compound first:
SMILES,IC50 [1],IC50 [2]
"CS(=O)(=O)c1cccc(-c2nc(C3(c4ccc(-c5cnc(N)nc5)nc4)CCC3)no2)c1 [Example 11, 5-[5-(1-{5-[3-(methylsulfonyl)phenyl]-1,2,4-oxadiazol-3-yl}cyclobutyl)pyridin-2-yl]pyrimidin-2-amine]",2200 nM,78 nM
"Nc1ncc(-c2ccc(C3(c4noc(-c5ccc(-n6ccnc6)nc5)n4)CCC3)cn2)cn1 [Example 31, 5-[5-(1-{5-[6-(1H-imidazol-1-yl)pyridin-3-yl]-1,2,4-oxadiazol-3-yl}cyclobutyl)pyridin-2-yl]pyrimidin-2-amine]",300 nM,1.9 nM
"CCOC(=O)CCN1CCN(c2ccc(-c3nc(C4(c5ccc(-c6cnc(N)nc6)nc5)CCC4)no3)cn2)CC1 [Example 47, ethyl 3-{4-[5-(3-{1-[6-(2-aminopyrimidin-5-yl)pyridin-3-yl]cyclobutyl}-1,2,4-oxadiazol-5-yl)pyridin-2-yl]piperazin-1-yl}propanoate]",170 nM,3.4 nM
"COC(=O)[C@@H]1CCCN1c1ccc(-c2nc(C3(c4ccc(-c5cnc(N)nc5)nc4)CCC3)no2)cn1 [Example 36, methyl 1-[5-(3-{1-[6-(2-aminopyrimidin-5-yl)pyridin-3-yl]cyclobutyl}-1,2,4-oxadiazol-5-yl)pyridin-2-yl]-L-prolinate]",1400 nM,5.9 nM
"NC(=O)Cn1cc(-c2nc(C3(c4ccc(-c5cnc(N)nc5)nc4)CCC3)no2)cn1 [Example 70, 2-[4-(3-{1-[6-(2-aminopyrimidin-5-yl)pyridin-3-yl]cyclobutyl}-1,2,4-oxadiazol-5-yl)-1H-pyrazol-1-yl]acetamide]",2100 nM,150 nM
"Nc1ncc(-c2ccc(C3(c4noc(-c5ccc(O)cc5)n4)CCC3)cn2)cn1 [Example 32, 4-(3-{1-[6-(2-aminopyrimidin-5-yl)pyridin-3-yl]cyclobutyl}-1,2,4-oxadiazol-5-yl)phenol]",140 nM,2.9 nM
"CS(=O)(=O)N1CCN(c2ccc(-c3nc(C4(c5ccc(-c6cnc(N)nc6)nc5)CCC4)no3)cn2)CC1 [Example 50, 5-{5-[1-(5-{6-[4-(methylsulfonyl)piperazin-1-yl]pyridin-3-yl}-1,2,4-oxadiazol-3-yl)cyclobutyl]pyridin-2-yl}pyrimidin-2-amine]",150 nM,2.7 nM
"Nc1ncc(-c2ccc(C3(c4noc(-c5cscn5)n4)CCC3)cn2)cn1 [Example 23, 5-(5-{1-[5-(1,3-thiazol-4-yl)-1,2,4-oxadiazol-3-yl]cyclobutyl}pyridin-2-yl)pyrimidin-2-amine]",430 nM,26 nM
"COC(=O)[C@H]1CNCCN1c1ccc(-c2nc(C3(c4ccc(-c5cnc(N)nc5)nc4)CCC3)no2)cn1 [Example 38, methyl (2R)-1-[5-(3-{1-[6-(2-aminopyrimidin-5-yl)pyridin-3-yl]cyclobutyl}-1,2,4-oxadiazol-5-yl)pyridin-2-yl]piperazine-2-carboxylate]",75 nM,3.2 nM
"CN(C)c1nc(C2(c3ccc(-c4cnc(N)nc4)nc3)CCC2)no1 [Example 15, 5-(5-{1-[5-(dimethylamino)-1,2,4-oxadiazol-3-yl]cyclobutyl}pyridin-2-yl)pyrimidin-2-amine]",2600 nM,280 nM
"CCOC(=O)CNc1ccc(-c2nc(C3(c4ccc(-c5cnc(N)nc5)nc4)CCC3)no2)cn1 [Example 13, ethyl N-[5-(3-{1-[6-(2-aminopyrimidin-5-yl)pyridin-3-yl]cyclobutyl}-1,2,4-oxadiazol-5-yl)pyridin-2-yl]glycinate]",170 nM,3.9 nM
"Nc1ncc(-c2ccc(C3(c4noc(-c5cocn5)n4)CCC3)cn2)cn1 [Example 24, 5-(5-{1-[5-(1,3-oxazol-4-yl)-1,2,4-oxadiazol-3-yl]cyclobutyl}pyridin-2-yl)pyrimidin-2-amine]",1000 nM,110 nM
"Nc1ncc(-c2ccc(C3(c4noc(-c5cccc(S(N)(=O)=O)c5)n4)CCC3)cn2)cn1 [Example 19, 3-(3-{1-[6-(2-aminopyrimidin-5-yl)pyridin-3-yl]cyclobutyl}-1,2,4-oxadiazol-5-yl)benzenesulfonamide]",> 5000 nM,58 nM
"Nc1ncc(-c2ccc(C3(c4noc(-c5ccc(NC6CC6)nc5)n4)CCC3)cn2)cn1 [Example 9, 5-[5-(1-{5-[6-(cyclopropylamino)pyridin-3-yl]-1,2,4-oxadiazol-3-yl}cyclobutyl)pyridin-2-yl]pyrimidin-2-amine]",320 nM,2.9 nM
